# Laboratory results from ChEMBL document CHEMBL1157221, “14,15-secopregnane derivatives from the leaves of Solenostemma argel” (J Nat Prod, 2006).
# The source made the active and inactive calls. No cut-off for these calls is given here.
# System: RAW264.7
# Assay: Antiinflammatory activity against mouse RAW264.7 cells assessed as stimulation LPS-induced TNFalpha release at 100 uM pretreated for 30 mins before LPS challenge by ELISA
# Type: functional, cell-based
row,Structure (SMILES),Activity
1,CO[C@H]1C[C@H](O[C@H]2CC[C@@]3(COC(C)=O)C(=CC[C@@H]4[C@@H]3CC[C@]3(C)[C@@H]5[C@H]6CO[C@@]5(C)O[C@@]43O6)C2)O[C@H](C)[C@H]1O[C@H]1C[C@H](OC)[C@H](O[C@H]2C[C@@H](O)[C@H](O[C@H]3C[C@@H](OC)[C@H](O[C@@H]4O[C@H](CO)[C@@H](O)[C@H](O)[C@H]4O)[C@@H](C)O3)[C@@H](C)O2)[C@@H](C)O1,Active
2,COC(=O)C[C@H](O[C@H]1CC[C@@]2(C)C(=CC[C@@H]3[C@@H]2CC[C@]2(C)[C@@H]4[C@H]5CO[C@@]4(C)O[C@@]32O5)C1)O[C@H](C)C(=O)O,inactive
3,CO[C@@H]1[C@@H](O)[C@H](O[C@@H]2[C@@H](C)O[C@@H](O[C@H]3[C@@H](OC)C[C@H](O[C@H]4[C@H](O)C[C@H](O[C@H]5CC[C@@]6(C)C(=CC[C@@H]7[C@@H]6CC[C@]6(C)[C@@H]8[C@H]9CO[C@@]8(C)O[C@@]76O9)C5)O[C@@H]4C)O[C@@H]3C)C[C@H]2OC)O[C@H](C)[C@H]1O[C@@H]1O[C@H](CO)[C@@H](O)[C@H](O)[C@H]1O,Active
4,CO[C@@H]1[C@@H](O)[C@H](O[C@@H]2[C@@H](C)O[C@@H](O[C@H]3[C@@H](OC)C[C@H](O[C@@H]4[C@@H](C)O[C@@H](O[C@H]5CC[C@@]6(CO)C(=CC[C@@H]7[C@@H]6CC[C@]6(C)[C@@H]8[C@H]9CO[C@@]8(C)O[C@@]76O9)C5)C[C@H]4OC)O[C@@H]3C)C[C@H]2OC)O[C@H](C)[C@H]1O[C@@H]1O[C@H](CO)[C@@H](O)[C@H](O)[C@H]1O,Active
